Measurements reported in patent US20260345619A1 (Principia Biopharma Inc., priority 2023, published 2026).

Test: Loss of asthma control (LOAC) events, 12-week ICS/LABA withdrawal study
Format: in vivo, human
Settings: for RD vs. Placebo / LOAC, number / OR vs. placebo: 400 mg BID
Excerpt: The general construct of this 12-week Loss of Asthma Control (LOAC) study consisted of a 4-week standardized ICS/LABA background therapy stabilization phase, a 4or 5-week background therapy withdrawal phase and a 3- or 4-week no background therapy phase, followed by a 4-week post IMP treatment safety follow-up period at the beginning of which, pre-screening asthma controller medications are restarted. Participants had access to short-acting β-agonist (SABA) reliever medication at all times during the protocol.
The primary endpoint was the proportion of patients with LOAC. The key secondary endpoint for the study was change in pre-bronchodilator FEV1 from baseline at EOT.
The primary endpoint was proportion of participants with LOAC during the 12-week treatment period.
Note that if the number of participants in some regions was too low, these regions may have been pooled with other regions. This strategy also applied to all the rest of the analyses where region was one of the covariates.
To assess the consistency in treatment effects across different subgroup levels, subgroup analyses were to be performed for the primary efficacy endpoint with respect to age group, gender, region, and other factors.
Secondary endpoints included pre-bronchodilator FEV1 change from baseline at EOT, ACQ-5 score change from baseline, and AQLQ score change from baseline. Other secondary and exploratory endpoints are described in Table 2.

[1] = all others than low EOS and low FeNO
[2] = background ICS/LABA dose Medium
[3] = baseline IgA <Median (2600) IU/mL
[4] = baseline IgA ≥Median (2600) IU/mL
[5] = baseline IgE <Median (210.8) IU/mL
[6] = baseline IgE ≥Median (210.8) IU/mL
[7] = baseline percent predicted FEV1 <Median (68)
[8] = baseline percent predicted FEV1 ≥ Median (68)
[9] = baseline pre-BD FEV1 <Median (2.022) L
[10] = baseline pre-BD FEV1 ≥Median (2.022) L
[11] = blood eosinophil level 1 <0.15 (10^9/L)
[12] = blood eosinophil level 1 ≥0.15 (10^9/L)
[13] = blood eosinophil level 2 <0.3 (10^9/L)
[14] = blood eosinophil level 2 ≥0.3 (10^9/L)
[15] = 400 mg TID cohort, Eastern Europe, n = 43
[16] = 400 mg TID cohort, Latin America, n = 19

In the case of CC(C)(C=C(C#N)C(=O)N1CCC[C@@H](n2nc(-c3ccc(Oc4ccccc4)cc3F)c3c(N)ncnc32)C1)N1CCN(C2COC2)CC1 (mixture of isomers) [rilzabrutinib, (R)-2-[3-[4-amino-3-(2-fluoro-4-phenoxy-phenyl)pyrazolo[3,4-d]pyrimidin-1-yl]piperidine-1-carbonyl]-4-methyl-4-[4-(oxetan-3-yl)piperazin-1-yl]pent-2-enenitrile], the “RD vs. Placebo” value (age at onset ≥18-<40 years) is reported as −0.314, the “LOAC, number” value (age at onset ≥18 years) is reported as 7 and the OR vs. placebo (age at onset ≥18 years) is reported as 0.323. The “RD vs. Placebo” value (age at onset ≥18 years) was −0.258, the “LOAC, number” value (age at onset ≥40 years) was 3 and the OR vs. placebo (age at onset ≥40 years) was 3.000. The “RD vs. Placebo” value (age at onset ≥40 years) was 0.250, the “LOAC, number” value [1] was 12 and the OR vs. placebo [1] was 0.808. The “RD vs. Placebo” value [1] was −0.053, the “LOAC, number” value (atopic medical conditions: No) was 4 and the OR vs. placebo (atopic medical conditions: No) was 0.380. The “RD vs. Placebo” value (atopic medical conditions: No) was −0.204, the “LOAC, number” value (atopic medical conditions: Yes) was 8 and the OR vs. placebo (atopic medical conditions: Yes) was 0.681. The “RD vs. Placebo” value (atopic medical conditions: Yes) was −0.069, the “LOAC, number” value (background ICS/LABA dose High) was 11 and the OR vs. placebo (background ICS/LABA dose High) was 0.737. The “RD vs. Placebo” value (background ICS/LABA dose High) was −0.075, the “LOAC, number” value [2] was 1 and the “RD vs. Placebo” value [2] was −0.467. The OR vs. placebo (baseline ACQ-5 >2) was 0.475, the “LOAC, number” value (baseline ACQ-5 ≤2) was 7 and the OR vs. placebo (baseline ACQ-5 ≤2) was 0.651. The “RD vs. Placebo” value (baseline ACQ-5 ≤2) was −0.098, the “LOAC, number” value (baseline FeNO level 1 <25 ppb) was 3 and the OR vs. placebo (baseline FeNO level 1 <25 ppb) was 0.261. For the same compound, the “RD vs. Placebo” value (baseline FeNO level 1 <25 ppb) was −0.227, the “LOAC, number” value (baseline FeNO level 1 ≥25 ppb) was 9 and the OR vs. placebo (baseline FeNO level 1 ≥25 ppb) was 0.946. The “RD vs. Placebo” value (baseline FeNO level 1 ≥25 ppb) was −0.007, the “LOAC, number” value (baseline FeNO level 2 <35 ppb) was 8 and the OR vs. placebo (baseline FeNO level 2 <35 ppb) was 0.448. The “RD vs. Placebo” value (baseline FeNO level 2 <35 ppb) was −0.198, the “LOAC, number” value (baseline FeNO level 2 ≥35 ppb) was 4 and the OR vs. placebo (baseline FeNO level 2 ≥35 ppb) was 0.800. For the same compound, the “RD vs. Placebo” value (baseline FeNO level 2 ≥35 ppb) was −0.053, the “LOAC, number” value [3] was 4 and the OR vs. placebo [3] was 0.205. For the same compound, the “RD vs. Placebo” value [3] was −0.365, the “LOAC, number” value [4] was 8 and the OR vs. placebo [4] was 1.633. For the same compound, the “RD vs. Placebo” value [4] was 0.122, the “LOAC, number” value (baseline IgE <100 IU/mL) was 2 and the OR vs. placebo (baseline IgE <100 IU/mL) was 0.412. The “RD vs. Placebo” value (baseline IgE <100 IU/mL) was −0.220, the “LOAC, number” value [5] was 6 and the OR vs. placebo [5] was 0.744. The “RD vs. Placebo” value [5] was −0.053, the “LOAC, number” value (baseline IgE ≥100 IU/mL) was 10 and the OR vs. placebo (baseline IgE ≥100 IU/mL) was 0.652. The “RD vs. Placebo” value (baseline IgE ≥100 IU/mL) was −0.092, the “LOAC, number” value [6] was 6 and the OR vs. placebo [6] was 0.604. For the same compound, the “RD vs. Placebo” value [6] was −0.124, the “LOAC, number” value [7] was 7 and the OR vs. placebo [7] was 0.700. The “RD vs. Placebo” value [7] was −0.088, the OR vs. placebo [8] was 0.556 and the “RD vs. Placebo” value [8] was −0.143. For the same compound, the “LOAC, number” value [9] was 7, the OR vs. placebo [9] was 0.700 and the “RD vs. Placebo” value [9] was −0.088. The OR vs. placebo [10] was 0.556, the “RD vs. Placebo” value [10] was −0.143 and the “LOAC, number” value [11] was 2. The OR vs. placebo [11] was 0.527, the “RD vs. Placebo” value [11] was −0.135 and the “LOAC, number” value [12] was 10. The OR vs. placebo [12] was 0.737, the “RD vs. Placebo” value [12] was −0.077 and the OR vs. placebo [13] was 0.231. The “RD vs. Placebo” value [13] was −0.197, the “LOAC, number” value [14] was 7 and the OR vs. placebo [14] was 0.951. The “RD vs. Placebo” value [14] was −0.013, the “LOAC, number” value (low EOS (<0.15) and low FeNO (<25)) was 0 and the “LOAC, number” value (smoking history Former) was 3. The OR vs. placebo (smoking history Former) was 3.000, the “RD vs. Placebo” value (smoking history Former) was 0.250 and the “LOAC, number” value (smoking history Never) was 9. For the same compound, the OR vs. placebo (smoking history Never) was 0.474, the “RD vs. Placebo” value (smoking history Never) was −0.179 and the “LOAC incidence, number of participants” value [15] was 8. For the same compound, the “LOAC incidence, percentage” value [15] was “(18.6)”, the “LOAC OR vs. placebo” value (400 mg TID cohort, Eastern Europe, 95% CI (0.187, 1.368)) was 0.506 and the “LOAC incidence, number of participants” value [16] was 4. The “LOAC incidence, percentage” value [16] was “(21.1)”, the “LOAC OR vs. placebo” value (400 mg TID cohort, Latin America, 95% CI (0.166, 3.357)) was 0.747 and the “LOAC RD vs. placebo” value (400 mg TID cohort, Latin America, 95% CI (−0.322, 0.217)) was −0.053.
